{"source": "patent US7208528B1", "about": "“Polyamine analogues as therapeutic and diagnostic agents” (MediQuest Therapeutics, Inc., priority 1997, dated 2007)", "key": {"[1]": {"system": "polyamine transport system of MDA cells", "experiment": "SPD transport inhibition and recovery after washing in MDA cells", "assay_type": "cell-based, human", "settings": "3 day incubation"}, "[2]": {"system": "MDA breast carcinoma cells", "experiment": "Rescue from DFMO-induced growth inhibition of MDA cells without added polyamines, six day growth assay", "assay_type": "cell-based, human", "settings": "Homo sapiens, Breast carcinoma cell, 144 h; 230 μM, no additional polyamines, six day growth assay; read-out: cell number, % of control", "experimental": "An additional series of spermine amides were evaluated to extend the structure-activity relationship around this polyamine transport target.\nGrowth assays were done over a six day period in order to allow for polyamine depletion within cells. When synthesis of polyamines is inhibited, cells compensate by increasing transport of extracellular polyamines into the cell. Over the time course of the assay, polyamines in the culture media may be depleted resulting in growth inhibition."}, "MDA cells [3]": {"system": "MDA cells", "experiment": "Long term (three week) growth of MDA cells with DFMO, 1202 or both", "assay_type": "cell-based, human", "settings": "DFMO 500 μM or 1202 60 μM alone, three weeks"}, "MDA cells [4]": {"system": "MDA cells", "experiment": "Intracellular polyamine levels in MDA cells after long term treatment", "assay_type": "cell-based, human", "settings": "DFMO alone, one and three weeks", "source_text": "We examined the intracellular polyamine levels in MDA cells after 6 and 20 days of growth in the presence of polyamine synthesis inhibitor or transport inhibitor, or both."}, "[5]": {"system": "polyamine transport system of MDA cells", "experiment": "Transport Km and Vmax with 3H-SPD after long term treatment of MDA cells", "assay_type": "cell-based, human", "settings": "DFMO in the presence of SPD", "source_text": "We wished to determine the effects of long term treatment with DFMO, 1202, or both, on polyamine transport characteristics."}, "[6]": {"system": "mutant L1210 leukemia cells deficient in polyamine uptake", "settings": "cited from earlier work"}, "[7]": {"system": "wild-type L1210 cancer cells", "settings": "cited from earlier work"}, "MDA-MB-231 cells": {"system": "MDA-MB-231 cells", "experiment": "Growth assay of MDA-MB-231 cells with ODC inhibitor (DFMO) and 1 μM spermidine", "settings": "alone, in the presence of 1 μM SPD", "procedure": "The estrogen insensitive human breast carcinoma MDA-MB-231 cell line as the primary cell line in the screen. […] In order to optimize the screen for polyamine transport inhibition, 1.0 μM spermidine was added to media to reverse the effects of ODC inhibitors. The assay was also performed over seven days because this allows for the greatest dynamic range in cell growth due to the mechanism of ODC inhibitors. Cells need to divide several times before the intracellular level of polyamines begin to decrease to growth inhibitory levels.\nCompounds were tested for their ability to inhibit cell growth in the presence of 1 μM spermidine and 230 μM ODC inhibitor for the MDA-MB-231 cells or 1 mM ODC inhibitor for the PC3 cells.\nIn our six day growth assays, 1202 was tested at increasing concentrations with the optimal concentration of DFMO."}, "[8]": {"settings": "mice inoculated with mutant L1210 cells"}}}
{"compound": "NCCC[C@](N)(C(=O)O)C(F)F", "note": "[DFMO, α-difluoromethylornithine]", "values": [{"measurement": "up-regulation of SPD transport", "setting": "[1]", "result": 3, "unit": "fold"}, {"measurement": "activity at 230 µM", "setting": "[2]", "result": 35, "unit": "%"}, {"measurement": "growth rate with single compound", "setting": "MDA cells [3]", "result": "little difference in growth rate"}, {"measurement": "decrease in PUT levels", "setting": "MDA cells [4]", "result": "69–86%"}, {"measurement": "change in Vmax", "setting": "[5]", "result": "no change"}, {"measurement": "survival", "setting": "[6]; PAT-deficient L1210 cells, DFMO", "result": "> 60", "unit": "days"}, {"measurement": "increase in median survival time", "setting": "[6]; [8]", "result": 87, "unit": "%"}, {"measurement": "mice cured", "setting": "[6]; [8]", "result": "13 of 40"}, {"measurement": "increase in median survival time", "setting": "[7]; mice inoculated with the parental cell line", "result": 22, "unit": "%"}, {"measurement": "time to death", "setting": "[7]; wild-type L1210, treated with DFMO", "result": 12, "unit": "days"}, {"measurement": "effect on growth of single agent", "setting": "MDA-MB-231 cells", "result": "minimal"}]}
